Measured values: US10196390B2, “TYK2 inhibitors and uses thereof” (Nimbus Lakshmi, Inc., priority 2014, dated 2019)
Read-outs that look alike come from different tables or passages of the source.

Columns and labels:
Tyk2-pSTAT4 = experiment: IL-12 induced pSTAT4 in human PBMC; format: cell-based; details: read-out: Tyk2-pSTAT4 EC50
Procedure: (§1) Human PBMC are isolated from buffy coat and are stored frozen for assays as needed. Cells for assay are thawed and resuspended in complete media containing serum, then cells are diluted to 1.67 E6 cells/ml so that 120 μl per well is 200,000 cells. 15 μl of compound or DMSO is added to the well at the desired concentrations and incubated at 1 hr at 37 C. 15 μl of stimulus (final concentration of 1.7 ng/mL IL-12) is added for 30 minutes prior to pSTAT4 and total STAT4 analysis using cell lysates prepared and analyzed by MSD reagents as per manufacturer protocol. The final DMSO concentration of compound in the assay is 0.1%.

TYK2 = TYK2 (Homo sapiens (Human), UniProt P29597); experiment: Tyk2 activity inhibition assay (radioactive kinase assay / Caliper assay); format: biochemical
In short: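 Radiometric format: TYK2 with peptide substrate (20 μM) and 33P-ATP at 10 μM in HEPES pH 7.5, 1% DMSO, 120 min at room temp, P81 paper capture. Caliper mobility-shift format: TYK2 9.75 nM, peptide 30 at 3 uM, ATP 16 uM (also 1 mM), 25 min at 28° C.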

JAK2-pSTAT5 = experiment: GM-CSF induced pSTAT5 in human PBMC; format: cell-based; details: read-out: JAK2-pSTAT5 EC50
Procedure: as §1, with “Cells for assay are thawed and resuspended in complete media containing serum, then cells are diluted to 1.67 E6 cells/ml so that 120 μl per well is 200,000 cells.” left out
Cells are prepared for analysis as in the above procedure and 15 μl of GM-CSF (final concentration 5 ng/mL) is added for 20 minutes prior to pSTAT5 and total STAT5 analysis using cell lysates prepared and analyzed by MSD reagents as per manufacturer protocol. The final DMSO concentration of compound in the assay is 0.1%.

JAK2 = JAK2 (Homo sapiens (Human), UniProt O60674); experiment: JAK2 activity inhibition assay (radioactive kinase assay / Caliper assay); format: biochemical; details: read-out: JAK2 Ki
In short: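 Mobility-shift (Caliper) read-out of phosphorylated peptide substrate. Compound diluted in 25 mM HEPES pH 7.5, 0.01% Brij-35, 0.01% Triton, 0.5 mM EGTA; enzyme added, then peptide plus ATP in 10 mM MgCl2. Incubated 25 min at 28° C, stopped with EDTA buffer.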

[1] = IL-12 induced pSTAT4, human PBMC
[2] = GM-CSF induced pSTAT5, human PBMC

JAK2, sequence (O60674 whole entry): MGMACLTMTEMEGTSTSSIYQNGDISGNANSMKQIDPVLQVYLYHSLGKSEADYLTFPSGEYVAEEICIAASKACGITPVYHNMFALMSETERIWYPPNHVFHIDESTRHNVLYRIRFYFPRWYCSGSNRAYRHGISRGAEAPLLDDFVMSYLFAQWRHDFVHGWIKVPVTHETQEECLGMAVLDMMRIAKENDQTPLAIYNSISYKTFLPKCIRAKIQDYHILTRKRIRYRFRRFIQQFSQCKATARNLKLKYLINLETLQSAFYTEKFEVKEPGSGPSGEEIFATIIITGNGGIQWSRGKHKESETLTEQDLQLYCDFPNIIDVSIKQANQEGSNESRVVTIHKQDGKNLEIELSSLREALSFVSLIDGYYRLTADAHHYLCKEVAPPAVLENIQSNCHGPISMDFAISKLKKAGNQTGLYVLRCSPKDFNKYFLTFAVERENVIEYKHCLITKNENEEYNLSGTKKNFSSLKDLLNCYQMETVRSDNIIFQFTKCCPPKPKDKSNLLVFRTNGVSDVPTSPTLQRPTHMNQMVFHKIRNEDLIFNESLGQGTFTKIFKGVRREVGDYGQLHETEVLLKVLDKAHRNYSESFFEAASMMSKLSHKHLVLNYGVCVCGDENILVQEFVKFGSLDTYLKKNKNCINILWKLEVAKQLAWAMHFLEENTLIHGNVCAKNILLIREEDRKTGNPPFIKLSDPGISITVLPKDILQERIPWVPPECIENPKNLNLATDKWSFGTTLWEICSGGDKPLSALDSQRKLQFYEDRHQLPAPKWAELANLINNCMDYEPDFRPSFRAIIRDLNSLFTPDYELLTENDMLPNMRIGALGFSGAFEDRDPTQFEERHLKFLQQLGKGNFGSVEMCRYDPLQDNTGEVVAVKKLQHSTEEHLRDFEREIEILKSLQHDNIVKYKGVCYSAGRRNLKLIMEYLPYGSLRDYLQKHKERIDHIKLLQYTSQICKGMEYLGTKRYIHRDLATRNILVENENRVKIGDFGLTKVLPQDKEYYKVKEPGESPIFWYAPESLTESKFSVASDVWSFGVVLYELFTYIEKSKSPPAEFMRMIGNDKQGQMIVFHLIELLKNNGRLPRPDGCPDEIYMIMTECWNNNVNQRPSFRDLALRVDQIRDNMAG
TYK2, sequence (P29597 whole entry): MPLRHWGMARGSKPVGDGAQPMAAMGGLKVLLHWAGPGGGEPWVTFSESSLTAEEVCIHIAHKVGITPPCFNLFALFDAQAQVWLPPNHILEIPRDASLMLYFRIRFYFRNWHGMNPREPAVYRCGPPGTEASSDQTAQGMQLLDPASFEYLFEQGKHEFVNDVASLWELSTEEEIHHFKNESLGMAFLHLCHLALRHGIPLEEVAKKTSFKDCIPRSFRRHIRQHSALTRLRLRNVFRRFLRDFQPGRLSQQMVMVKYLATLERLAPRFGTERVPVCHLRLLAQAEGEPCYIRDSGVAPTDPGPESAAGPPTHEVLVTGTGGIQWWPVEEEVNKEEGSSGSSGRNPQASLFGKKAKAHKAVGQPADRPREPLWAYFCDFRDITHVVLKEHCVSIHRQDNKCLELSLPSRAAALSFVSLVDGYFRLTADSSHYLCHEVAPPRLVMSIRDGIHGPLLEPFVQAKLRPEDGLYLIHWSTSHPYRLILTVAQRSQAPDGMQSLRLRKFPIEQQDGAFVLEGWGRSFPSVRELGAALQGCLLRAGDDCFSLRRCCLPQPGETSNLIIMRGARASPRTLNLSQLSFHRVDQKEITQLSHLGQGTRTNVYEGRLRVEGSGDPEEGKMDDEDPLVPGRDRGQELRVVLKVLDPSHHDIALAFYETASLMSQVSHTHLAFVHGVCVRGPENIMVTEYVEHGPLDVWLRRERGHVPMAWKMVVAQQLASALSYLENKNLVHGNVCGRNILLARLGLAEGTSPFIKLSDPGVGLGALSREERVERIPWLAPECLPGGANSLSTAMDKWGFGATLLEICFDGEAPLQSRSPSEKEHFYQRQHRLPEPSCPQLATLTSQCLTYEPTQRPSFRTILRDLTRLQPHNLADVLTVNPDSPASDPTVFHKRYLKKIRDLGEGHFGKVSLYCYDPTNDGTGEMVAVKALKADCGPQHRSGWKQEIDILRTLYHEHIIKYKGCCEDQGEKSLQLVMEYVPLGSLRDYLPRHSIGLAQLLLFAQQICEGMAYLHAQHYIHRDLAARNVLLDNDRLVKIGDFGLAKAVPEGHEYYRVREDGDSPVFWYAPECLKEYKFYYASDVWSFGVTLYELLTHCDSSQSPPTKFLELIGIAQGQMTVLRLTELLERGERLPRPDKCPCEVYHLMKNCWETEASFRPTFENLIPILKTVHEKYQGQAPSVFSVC

Compound	EC50 (Tyk2-pSTAT4; [1]) [µM]	Ki (TYK2) [µM]	EC50 (JAK2-pSTAT5; [2]) [µM]	Ki (JAK2) [µM]	EC50 (Tyk2-pSTAT4; Homo sapiens, PBMC) [µM]	EC50 (JAK2-pSTAT5; Homo sapiens, PBMC) [µM]
O=C1NCc2nc(-c3c(F)cccc3F)nc(Nc3ccc(CC(=O)N4CCOCC4)cc3)c21 [Compound I-66, 2-(2,6-difluorophenyl)-4-((4-(2-morpholino-2-oxoethyl)phenyl)amino)-6,7-dihydro-5H-pyrrolo[3,4-d]pyrimidin-5-one]	< 2	< 0.01	> 20	0.1 to 1	–	–
O=C1NCc2nc(-c3c(F)cccc3F)cc(Nc3ccc(N4CCC(O)CC4)cn3)c21 [Compound I-147, 2-(2,6-difluorophenyl)-4-((5-(4-hydroxypiperidin-1-yl)pyridin-2-yl)amino)-6,7-dihydro-5H-pyrrolo[3,4-b]pyridin-5-one]	< 2	< 0.01	< 2	0.01 to 0.1	–	–
O=C1NCc2nc(-c3c(F)cccc3Cl)nc(Nc3ccc([C@@H]4CCNC4=O)cc3)c21 [Compound I-115, (S)-2-(2-chloro-6-fluorophenyl)-4-((4-(2-oxopyrrolidin-3-yl)phenyl)amino)-6,7-dihydro-5H-pyrrolo[3,4-d]pyrimidin-5-one]	< 2	0.01 to 0.1	2 to 20	0.1 to 1	–	–
COc1ccc(Nc2cc(-c3c(F)cccc3F)nc3c2C(=O)NC3)nc1 [Compound I-167, 2-(2,6-difluorophenyl)-4-((5-methoxypyridin-2-yl)amino)-6,7-dihydro-5H-pyrrolo[3,4-b]pyridin-5-one]	< 2	< 0.01	> 20	0.1 to 1	–	–
CC(C)(O)CN1CCC(c2ccc(Nc3nc(-c4c(F)cccc4F)nc4c3C(=O)NC4)cc2)C1=O (stereo not drawn) [Compound I-161, 2-(2,6-difluorophenyl)-4-((4-(1-(2-hydroxy-2-methylpropyl)-2-oxopyrrolidin-3-yl)phenyl)amino)-6,7-dihydro-5H-pyrrolo[3,4-d]pyrimidin-5-one]	< 2	< 0.01	2 to 20	0.1 to 1	–	–
O=C1NCc2nc(-c3c(F)cccc3F)cc(Nc3ccc(C(=O)N4CCCCC4)cc3)c21 [Compound I-257, 2-(2,6-difluorophenyl)-4-((4-(piperidine-1-carbonyl)phenyl)-amino)-6,7-dihydro-5H-pyrrolo[3,4-b]pyridin-5-one]	< 2	–	2 to 20	0.01 to 0.1	–	–
CCNC(=O)Cc1ccc(Nc2cc(-c3c(F)cccc3F)nc3c2C(=O)NC3)nc1 [Compound I-88, 2-(6-((2-(2,6-difluorophenyl)-5-oxo-6,7-dihydro-5H-pyrrolo[3,4-b]pyridin-4-yl)amino)pyridin-3-yl)-N-ethylacetamide]	–	0.01 to 0.1	–	0.1 to 1	< 2	< 2
O=C1NCc2nc(-c3c(F)cccc3F)cc(Nc3ccc(N4CCN(CCC(F)(F)F)CC4)cn3)c21 [Compound I-262, 2-(2,6-difluorophenyl)-4-((5-(4-(3,3,3-trifluoropropyl)piperazin-1-yl)pyridin-2-yl)amino)-6,7-dihydro-5H-pyrrolo[3,4-b]pyridin-5-one]	< 2	–	< 2	0.01 to 0.1	–	–
O=C1NCc2nc(-c3c(F)cccc3Cl)nc(Nc3ccc([C@H]4CCNC4=O)cc3)c21 [Compound I-114, (R)-2-(2-chloro-6-fluorophenyl)-4-((4-(2-oxopyrrolidin-3-yl)phenyl)amino)-6,7-dihydro-5H-pyrrolo[3,4-d]pyrimidin-5-one]	< 2	< 0.01	2 to 20	0.1 to 1	–	–
O=C1NCc2nc(-c3c(F)cccc3F)cc(Nc3ccc(OCCN4CCOCC4)cn3)c21 [Compound I-148, 2-(2,6-difluorophenyl)-4-((5-(2-morpholinoethoxy)pyridin-2-yl)amino)-6,7-dihydro-5H-pyrrolo[3,4-b]pyridin-5-one]	< 2	< 0.01	2 to 20	0.01 to 0.1	–	–
CC(C)(C)N1CCN(c2ccc(Nc3cc(-c4c(F)cccc4F)nc4c3C(=O)NC4)nc2)CC1 [Compound I-227, 4-((5-(4-(tert-butyl)piperazin-1-yl)pyridin-2-yl)amino)-2-(2,6-difluorophenyl)-6,7-dihydro-5H-pyrrolo[3,4-b]pyridin-5-one]	< 2	< 0.01	< 2	< 0.01	–	–
CC1(C)OCCN(c2ccc(Nc3cc(-c4c(F)cccc4F)nc4c3C(=O)NC4)nc2)C1=O [Compound I-273, 4-(6-((2-(2,6-difluorophenyl)-5-oxo-6,7-dihydro-5H-pyrrolo[3,4-b]pyridin-4-yl)amino)pyridin-3-yl)-2,2-dimethylmorpholin-3-one]	< 2	–	< 2	0.01 to 0.1	–	–
CC(C)N1CCN(c2ccc(Nc3cc(-c4c(F)cccc4F)nc4c3C(=O)NC4)nc2)C(=O)C1 [Compound I-242, 2-(2,6-difluorophenyl)-4-((5-(4-isopropyl-2-oxopiperazin-1-yl)pyridin-2-yl)amino)-6,7-dihydro-5H-pyrrolo[3,4-b]pyridin-5-one]	< 2	–	2 to 20	0.01 to 0.1	–	–
O=C1NCc2nc(-c3c(F)cccc3F)cc(Nc3ccc(N4CC(F)(F)C4)cn3)c21 [Compound I-229, 4-((5-(3,3-difluoroazetidin-1-yl)pyridin-2-yl)amino)-2-(2,6-difluorophenyl)-6,7-dihydro-5H-pyrrolo[3,4-b]pyridin-5-one]	–	–	2 to 20	0.01 to 0.1	< 2	–
O=C1NCc2nc(-c3c(F)cccc3F)cc(Nc3ccc(N4CCCOCC4)cn3)c21 [Compound I-253, 4-((5-(1,4-oxazepan-4-yl)pyridin-2-yl)amino)-2-(2,6-difluoro-phenyl)-6,7-dihydro-5H-pyrrolo[3,4-b]pyridin-5-one]	< 2	–	> 20	0.01 to 0.1	–	–
CC(C)N1CCN(C(=O)c2ccc(Nc3cc(-c4c(F)cccc4F)nc4c3C(=O)NC4)cc2)CC1 [Compound I-243, 2-(2,6-difluorophenyl)-4-((4-(4-isopropylpiperazine-1-carbo-nyl)phenyl)amino)-6,7-dihydro-5H-pyrrolo[3,4-b]pyridin-5-one]	< 2	–	2 to 20	0.01 to 0.1	–	–
O=C1NCc2nc(-c3c(F)cccc3F)cc(Nc3ccc(N4CCOCC4=O)cn3)c21 [Compound I-248, 4-(6-((2-(2,6-difluorophenyl)-5-oxo-6,7-dihydro-5H-pyrrolo[3,4-b]pyridin-4-yl)amino)pyridin-3-yl)morpholin-3-one]	< 2	–	< 2	0.01 to 0.1	–	–
CC1(O)CN(c2ccc(Nc3cc(-c4c(F)cccc4F)nc4c3C(=O)NC4)nc2)C1 [Compound I-228, 2-(2,6-difluorophenyl)-4-((5-(3-hydroxy-3-methylazetidin-1-yl)pyridin-2-yl)amino)-6,7-dihydro-5H-pyrrolo[3,4-b]pyridin-5-one]	–	–	2 to 20	0.01 to 0.1	< 2	–
CCNC(=O)c1ccc(Nc2cc(-c3c(F)cccc3F)nc3c2C(=O)NC3)cn1 [Compound I-260, 5-((2-(2,6-difluorophenyl)-5-oxo-6,7-dihydro-5H-pyrrolo[3,4-b]pyridin-4-yl)amino)-N-ethylpicolinamide]	< 2	–	> 20	0.1 to 1	–	–
CCNC(=O)c1ccc(Nc2nc(-c3c(F)cccc3F)nc3c2C(=O)NC3)cc1 [Compound I-195, 4-((2-(2,6-difluorophenyl)-5-oxo-6,7-dihydro-5H-pyrrolo[3,4-d]pyrimidin-4-yl)amino)-N-ethylbenzamide]	–	–	> 20	0.1 to 1	< 2	–
O=C1NCc2nc(-c3c(F)cccc3F)cc(Nc3ccc(N4CCOCC4)nc3)c21 [Compound I-238, 2-(2,6-difluorophenyl)-4-((6-morpholinopyridin-3-yl)amino)-6,7-dihydro-5H-pyrrolo[3,4-b]pyridin-5-one]	< 2	–	> 20	0.1 to 1	–	–
CC[C@@]1(c2ccc(Nc3nc(-c4c(F)cccc4F)nc4c3C(=O)NC4)cc2)CCNC1=O [Compound I-176, (S)-2-(2,6-difluorophenyl)-4-((4-(3-ethyl-2-oxopyrrolidin-3-yl)phenyl)amino)-6,7-dihydro-5H-pyrrolo[3,4-d]pyrimidin-5-one]	< 2	–	2 to 20	0.01 to 0.1	–	–
